# Patent US11337968B2, “Phenylquinoline compositions for treatment of ocular disorders and conditions” (The Board of Regents of the University of Oklahoma, priority 2016, dated 2022)
# “Also recorded” adds a separate entry of the source.
# What was measured:
# PPARα [1] = target: T1, PPARα (Homo sapiens, UniProt Q07869); experiment: PPARα transcriptional activity in PPARα reporter Combo cells (luciferase); format: cell-based; parameters: host or cells: PPARα reporter Combo cells; conditions: for PPARα transcriptional activity (luciferase), FIG. 1 and 2: 50 μM, PPARα reporter Combo cells; for PPARα transcriptional activity (luciferase), FIG. 1 and 2 / dose dependent effect on PPARα transcriptional activity, FIG. 3: 36 h; for dose dependent effect on PPARα transcriptional activity, FIG. 3: various concentrations up to 100 μM
# T1 sequence (Q07869 1-468): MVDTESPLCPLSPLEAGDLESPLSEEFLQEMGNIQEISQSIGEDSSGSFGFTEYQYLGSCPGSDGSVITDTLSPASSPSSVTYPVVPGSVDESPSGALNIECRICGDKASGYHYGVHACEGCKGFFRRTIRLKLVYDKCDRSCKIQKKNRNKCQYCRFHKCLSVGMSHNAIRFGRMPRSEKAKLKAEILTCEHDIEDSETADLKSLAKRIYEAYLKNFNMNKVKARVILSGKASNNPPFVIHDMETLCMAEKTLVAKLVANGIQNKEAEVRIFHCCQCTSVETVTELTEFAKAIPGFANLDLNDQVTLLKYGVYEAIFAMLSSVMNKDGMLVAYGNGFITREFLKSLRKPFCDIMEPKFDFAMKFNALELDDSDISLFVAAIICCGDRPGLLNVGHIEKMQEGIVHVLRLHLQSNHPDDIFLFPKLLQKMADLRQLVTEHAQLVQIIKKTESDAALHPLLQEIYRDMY
# Experimental: The PPARα reporter Combo cells were treated with the indicated compounds at concentrations of 50 μM for 36 h, and then luciferase activities were measured.
# The PPARα reporter Combo cells were treated with indicated compounds at concentrations of 50 μM for 36 h, and then luciferase activities were measured.
# Various phenylquinoline derivatives of the present disclosure were tested for their effects on PPARα transcriptional activity in PPARα reporter Combo cells, including NCI8 and compounds 1-13 as disclosed herein, as measured against the effect of Feno-FA.
# Cells were treated with various compounds at concentrations of 50 μM for 36 h, after which luciferase activities were measured. […] Cells were treated with various compounds at concentrations of 50 μM for 36 h, after which luciferase activities were measured. […] The experiments were repeated as various increasing concentrations comparing the effects of Feno-FA (FIG. 4), NCI8 (FIG. 5), compound 2 (FIG. 6), and compound 8 (FIG. 7).
# [2] = test system: retinal precursor cells (R28); experiment: TUNEL, palmitate-induced apoptosis in retinal precursor cells; format: cell-based
# [3] = test system: human retinal Müller cells (MIO-M1); experiment: TUNEL, palmitate-induced apoptosis in Müller cells; format: cell-based
# VEGF = experiment: expression of VEGF; conditions: potency similar to or higher than fenofibrate
# retinal leukostasis = experiment: leukostasis assay in oxygen-induced retinopathy (OIR) model; format: in vivo, C57BL/6 mice; conditions: OIR mice, 10 mg/kg/day i.p. P12 to P16, examined at P17, vs vehicle
# ARPE19 cells = experiment: palmitate-induced cell death in ARPE19 cells; format: cell-based
# ICAM-1, MCP-1, TNF-α = experiment: retinal levels of inflammatory factors by Western blotting in OIR model; format: in vivo, C57BL/6 mice; conditions: OIR mice, 10 mg/kg/day i.p. P12 to P16, Western blotting
# [4] = test system: human retinal capillary endothelial cells (HRCEC); experiment: endothelial cell migration in HRCEC; format: cell-based
# PPARα [5] = target: T1, PPARα; experiment: luciferase-based promoter assay of PPARα activation
# Experimental: The activation of PPARα by NCI8 was measured by luciferase-based promoter assay. […] Student's T-test was used for statistical analysis.
# [6] = test system: human retinal capillary endothelial cells (HRCEC); experiment: tube formation in HRCEC; format: cell-based
# [7] = test system: retinal capillaries and pericytes; experiment: retinal capillary degeneration and pericyte loss in streptozotocin-induced diabetic rats; format: in vivo; conditions: i.p., 10 mg/kg/day, 3 weeks
"PPARα transcriptional activity (luciferase), FIG. 1 and 2 (PPARα [1])","PPARα transcriptional activity at various increasing concentrations, FIG. 4-7 (PPARα [1]; compared with Feno-FA, NCI8, compound 8)","dose dependent effect on PPARα transcriptional activity, FIG. 3 (PPARα [1])",EC50 (PPARα [5]) [µM],Compound,palmitate-induced apoptosis of retinal precursor cells [2],palmitate-induced apoptosis of human retinal Müller cells [3],expression of VEGF (VEGF),number of adherent leukocytes in the retinal vasculature (retinal leukostasis) (retinal leukostasis),RPE cell death induced by palmitate (ARPE19 cells),"retinal level of ICAM-1 (ICAM-1, MCP-1, TNF-α)","retinal level of MCP-1 (ICAM-1, MCP-1, TNF-α)","retinal level of TNF-α (ICAM-1, MCP-1, TNF-α)",HRCEC migration [4],concentration range of concentration-dependent inhibition of endothelial cell migration [4] [µM],PPARα transcriptional activity (PPARα [5]; luciferase-based promoter assay),HRCEC tube formation [6],pericyte loss (pericyte numbers) ([7]; diabetic rats),retinal capillary degeneration (numbers of acellular capillaries in the retina) ([7]; streptozotocin-induced diabetic rats)
highest agonistic activity,greatest agonistic activity,greatest activity,–,"COc1ccc(-c2cc(C(=O)O)c3ccccc3n2)cc1OC [Compound 2, 2-(3,4-dimethoxyphenyl) quinoline-4-carboxylic acid]",–,–,–,–,–,–,–,–,–,–,–,–,–,–
highest agonistic activity,–,greatest activity,–,"O=C(O)c1cc(-c2ccccc2O)nc2ccccc12 [Compound 8, 2-(2-hydroxyphenyl) quinoline-4-carboxylic acid]",–,–,–,–,–,–,–,–,–,–,–,–,–,–
–,–,–,49.9,"Cc1c(Cl)ccc2c(C(=O)O)cc(-c3ccccc3)nc12 [NCI8, 7-chloro-8-methyl-2-phenylquinoline-4-carboxylic acid]",protective effect,protective effect,inhibited,decreased; also recorded: significantly reduced,protection of RPE cells from cell death,downregulated; also recorded: significantly down-regulated,downregulated; also recorded: significantly down-regulated,downregulated; also recorded: significantly down-regulated,significantly inhibited,50 to 200,activated PPARα transcriptional activity in a concentration-dependent manner; also recorded: Potent effects in enhancing transcriptional activities of PPARα,significantly inhibited; also recorded: higher potency than fenofibric acid,ameliorated; also recorded: significantly increased,ameliorated; also recorded: decreased
